In patent publication US20190201508A1, “METHODS FOR TREATING CANCERS USING ACE INHIBITORS, ARB, OR CELECOXIB AND OLMESARTAN” (Marina Biotech, Inc., priority 2016, published 2019):

Experiments:
[1] = test system: SUM149-RR tumor cells; experiment: Orthotopic human inflammatory breast cancer model SUM149-RR, lymph node metastatic burden (luciferase); assay type: in vivo, CB-17 SCID mice; conditions: for change in ILN burden versus control (in words): single agents or combination with CEL
Protocol: (§1) Luciferase-tagged SUM149 and MDA-MB-435 cell lines were used to determine the incidence and the burden of locoregional and systemic spread. Mice were monitored twice a week for 9-16 weeks for percent weight loss, tumor volume and survival outcome. Metastatic tumor burden and incidence was measured as luciferase expression in lymph nodes and lungs and normalized to total protein.
(§2) Tumors were monitored 2-3 times per week with digital calipers. Once tumors reached 1500 mm3, the mice were sacrificed. Tumors from MDA-MB-435-Luc and SUM149-RR were snap frozen and ipsilateral lymph nodes and lungs were collected for assessing metastatic burden and incidence by measuring luciferase expression per organ and normalized to total protein. Difference in incidence or burden as compared to the control was assessed by a Fisher exact test, or a Mann-Whitney test.
as §1, with “Methods: Three anti-hypertensive drugs (Lisinopril [LIS], Olmesartan medoxomil [OLM] and Hydrochlorothiazide [HCTZ]) were evaluated for tumor growth suppression and metastatic spread in xenograft models of inflammatory breast cancer/SUM149, melanoma/MDA-MB-435 and glioblastoma/U87. Luciferase-tagged” for “Luciferase-tagged”, “spread. […]” for “spread.”
Seven days post implantation, mice in subgroups of 5 received either saline, LIS (15 mg/kg), OLM (30 mg/kg) or HCTZ (10 mg/kg) for 5 days/wk for 3 weeks.
as §2, with “The tumor was” for “Tumors from MDA-MB-435-Luc and SUM149-RR were”

[2] = test system: inflammatory breast cancer/SUM149, melanoma/MDA-MB-435 and glioblastoma/U87 xenografts; experiment: Tumor growth suppression across xenograft models (pooled statements); assay type: in vivo, mice; conditions: for effect on tumor growth (in words): single agents, cancer models studied (breast cancer, melanoma, glioblastoma)
Protocol: as §1
Subcutaneous melanoma xenograft tumor model: MDA-MB-435-Luc: Female SCID mice were implanted with 4×10^6 MDA-MB-435-Luciferase tumor cells in 50% Matrigel subcutaneously on the left flank.
Orthotopic human inflammatory breast cancer model: SUM149-RR: Female CB-17 SCID mice were implanted in the mammary fat pad with 4×10^6 SUM149-RR tumor cells in 50% Matrigel.
T/C (%) was calculated as the mean RTV (relative tumor volume) of treated tumors (T) divided by the mean RTV of control tumors (C)×100%.
as §2
(§3) Methods: Three anti-hypertensive drugs (Lisinopril [LIS], Olmesartan medoxomil [OLM] and Hydrochlorothiazide [HCTZ]) were evaluated for tumor growth suppression and metastatic spread in xenograft models of inflammatory breast cancer/SUM149, melanoma/MDA-MB-435 and glioblastoma/U87. Luciferase-tagged SUM149 and MDA-MB-435 cell lines were used to determine the incidence and the burden of locoregional and systemic spread. CB-17 SCID mice were implanted either subcutaneously (MDA-MB-435 and U87) or orthotopically (SUM149) with 4×10^6 cancer cells and oral administration of test agents for 3 weeks was initiated on post-tumor inoculation Day 7. Mice were monitored twice a week for 9-16 weeks for percent weight loss, tumor volume and survival outcome. Metastatic tumor burden and incidence was measured as luciferase expression in lymph nodes and lungs and normalized to total protein.
Subcutaneous human melanoma xenograft tumor model: MDA-MB-435-Luciferase: Female SCID mice were implanted with 4×10^6 MDAMB-435-Luc tumor cells in 50% Matrigel subcutaneously on the left flank. Seven days post implantation, tumor-bearing mice in subgroups received either saline, Lisinopril (LIS, 15 mg/kg), Olmesartan (OLM, 30 mg/kg); or Hydrochlorothiazide (HCTZ, 10 mg/kg) for 5 consecutive days for 3 weeks.
Female CB-17 SCID mice were implanted in the mammary fat pad with 4×10^6 SUM149-RR tumor cells in 50% Matrigel. Seven days post implantation, mice in subgroups of 5 received either saline, LIS (15 mg/kg), OLM (30 mg/kg) or HCTZ (10 mg/kg) for 5 days/wk for 3 weeks.
Subcutaneous human U87-MG glioblastoma model: 3×10^6 U87 glioblastoma cells were injected into the right flank of Balb/c nude mice and tumor-bearing (50-250 mm3) mice were randomized into 10 groups (10 mice/group) and the antitumor activities of OLM were evaluated following daily PO administration (30 or 60 mg/kg, QD×21). T/C (%) was calculated as the mean RTV (relative tumor volume) of treated tumors (T) divided by the mean RTV of control tumors (C)×100%.
as §2, with “The tumor was” for “Tumors from MDA-MB-435-Luc and SUM149-RR were”

[3] = test system: tumor blood vessels (BV); experiment: Tumor blood vessel density and normalization (FIG. 6A/6B); assay type: in vivo; conditions: control tumors had low BV density and necrosis
[4] = test system: MDA-MB-435 xenograft; experiment: MDA-MB-435 xenograft tumor growth and tumor burden; assay type: in vivo, CB-17 SCID mice; conditions: MDA-MB-435 model; LIS 15 mg/kg, 5 consecutive days for 3 weeks
Protocol: as §2
as §3, with “CB-17 SCID mice were implanted either subcutaneously (MDA-MB-435 and U87) or orthotopically (SUM149) with 4×10^6 cancer cells and oral administration of test agents for 3 weeks was initiated on post-tumor inoculation Day 7.” left out
Tumors were monitored 2-3 times per week with digital calipers. Once tumors reached 1500 mm3, the mice were sacrificed.

| Structure (SMILES) | fold decrease in ILN tumor burden versus saline control ([1]; OLM 30 mg/kg alone) | average tumor burden in the ipsilateral lymph nodes (ILN) ([1]; OLM 30 mg/kg, saline control 17.6±8.6, p-value=0.01 by Mann-Whitney test) | lymph node burden ([1]; OLM versus control 17.6±8.6, P=0.01) | change in ILN burden versus control (in words) [1] | inhibition of tumor growth ([2]; range over all three xenograft models (SUM149, MDA-MB-435, U87)) | effect on tumor growth (in words) [2] | effect on tumor growth (in words) ([2]; listed as olmesartan) | effect on tumor blood vessels (BV) ([3]; FIG. 6A, single agents) | effect on tumor blood vessels (BV) ([3]; FIG. 6B, in combination) | effect on tumor growth (in words) ([2]; listed as HTCZ) | reduction in tumor burden [4] | effect on tumor growth (in words) ([2]; listed as Lisinopril) |
| --- | --- | --- | --- | --- | --- | --- | --- | --- | --- | --- | --- | --- |
| CCCc1nc(C(C)(C)O)c(C(=O)OCc2oc(=O)oc2C)n1Cc1ccc(-c2ccccc2-c2nn[nH]n2)cc1 [OLM, (5-methyl-2-oxo-2H-1,3-dioxol-4-yl)methyl 4-(2-hydroxypropan-2-yl)-2-propyl-1-({4-[2-(2H-1,2,3,4-tetrazol-5-yl)phenyl]phenyl}methyl)-1H-imidazole-5-carboxylate] | 7.1 fold | 2.4±0.6 ×104 RLU per mg of protein | 2.4±0.6 ×10^4 RLU/mg of protein | statistically significant decrease in ILN burden | 50-61% | significant inhibition of tumor growth | showed tumor growth suppression | facilitated the normalization and stabilization of tumor BVs | facilitated the normalization and stabilization of tumor BVs |  |  |  |
| NS(=O)(=O)c1cc2c(cc1Cl)NCNS2(=O)=O [HCTZ, Hydrochlorothiazide] |  |  |  | not |  | no effect on tumor growth |  |  |  | did not show the same effect |  |  |
| NCCCC[C@H](N[C@@H](CCc1ccccc1)C(=O)O)C(=O)N1CCC[C@H]1C(=O)O [LIS, Lisinopril] |  |  |  |  |  | significant inhibition of tumor growth |  | no major effect | no major effect |  | significant reduction in tumor burden | showed tumor growth suppression |
